Counter-ions that a name gives are not always drawn. Bounds are passed on as bounds.

One assay concerns Plasmodium falciparum. The assay is described as follows: In vitro anti-malarial activity against Plasmodium falciparum, IC50 assay / [3H]-Hypoxanthine incorporation assay. The settings on record: Erythrocyte; Plasmodium falciparum strains in parasitized red blood cells, [3H]-hypoxanthine incorporation, 48 hours at 37°C. The class given is cell-based. How it is done:
The compounds of this invention may be tested in one of several biological assays to determine the concentration of compound which is required to have a given pharmacological effect. In vitro anti-malarial activity against Plasmodium falciparum. IC50 assay / [^3H]-Hypoxanthine assay
The culture medium comprised RPMI 1640 with 25mM HEPES, sodium bicarbonate and glutamine (GIBCO™ cat. ref.: 52400), supplemented with 10% of pooled human sera AB (Irvine Scientific, cat. ref.: 5009) and HT supplement (0.15 mM hypoxanthine and 24 µM thymidine), (GIBCO™ cat. ref.: 41065). Human sera were decomplemented 30 min. at 56°C, aliquoted and stored frozen at -20°C until use in this culture medium.
This culture medium ("complete medium") was usually prepared fresh just before use and pre-warmed to 37°C.
Red blood cells O+ stock suspensions were prepared from whole blood bags coming from incomplete blood donation, provided by the Spanish Red Cross (<25 days after sampling). This "whole blood" was aliquoted and stored at 4°C.
To prepare red blood cells for the assay, the whole blood was centrifuged and washed 3 times with RPMI without serum. The upper phase, containing white blood cells was removed. The washed red blood cells were kept as a 50 % suspension in complete medium. The prepared cells were stored at 4°C and were employed in the assay at any time up to 4 days after preparation.
Test compounds were dissolved at 2 mg/ml in 100% DMSO on the day of the assay. If necessary, complete dissolution was achieved by gentle heating (the mixture was heated at a temperature <37°C) and sonication (sonication bath).
For IC50 determinations, 10 serial 2-fold dilutions were prepared in complete medium in the presence of a constant amount of DMSO. Any obvious signs of insolubility of the stock solutions in 100% DMSO or precipitation when these solutions were diluted in assay media, were recorded.
Plasmodium falciparum strains were maintained in complete medium at an hematocrit of 5% in continuous culture using a method adapted from that published by Trager and Jensen(1) and Traeger(2).
The parasitemia was calculated by counting the percentage of parasitized erythrocytes by optical microscopy. Thin films of blood were made every day from each culture flask, fixed with methanol and stained for 10 min. in Giemsa (Merck, cat. ref.: 1.09204) at 10 % in buffered water pH 7.2. The glass slides were observed and counted with an optical microscope (Nikon, Eclipse E200) equipped with a 100 X immersion oil objective.
The culture was maintained at an hematocrit of 5%, with a daily change of medium and was diluted when parasitemia had reached about 5%.
[^3H] Hypoxanthine incorporation assay was conducted using a method adapted from Desjardins et al. (3). The assays were performed in 96 wells flat bottom microplates. • 1. Serial dilutions of the test compounds (50µl of a 5X solution / well) were deposited in duplicate. Compounds of the invention were tested in this assay. Chloroquine and Atovaquone were used as control compounds for each assay. • 2. […] [^3H]-Hypoxanthine (Amersham Biosciences, cat. ref.: TRK74) was added extemporaneously to the inoculum suspension at a concentration of 1 µCi/ml (equating to […]). 200 µl of the resulting suspension was distributed into each well (other than the control well H12 described below) leading to a final volume of 250 µl per well, at 2% of hematocrit and 0.5 % of parasitemia / well. • 4. […]
Regarding `Cc1[nH]c(C)c(-c2cccc(C#CCN3CCC(c4ccc(OC(F)(F)F)cc4)CC3)c2)c(=O)c1Cl.O=C(O)C(F)(F)F` [Example 30, 3-Chloro-2,6-dimethyl-5-{3-[3-(4-{4-[(trifluoromethyl)oxy]phenyl}-1-piperidinyl)-1-propyn-1-yl]phenyl}-4(1H)-pyridinone trifluoroacetate], the IC50 was < 0.125 µg/mL.

Regarding `Cc1[nH]c(C)c(-c2ccc3sc(CN(C)Cc4ccc(OC(F)(F)F)cc4)cc3c2)c(=O)c1Cl.Cl` [Example 31, 3-Chloro-2,6-dimethyl-5-(2-{[methyl({4-[(trifluoromethyl)oxy]phenyl}methyl)amino]methyl}-1-benzothien-5-yl)-4(1H)-pyridinone hydrochloride], the IC50 was < 0.125 µg/mL. On to `Cc1[nH]c(C)c(-c2ccc(C3=CCN(Cc4ccc(OC(F)(F)F)cc4)CC3)cc2)c(=O)c1Cl.Cl` [Example 32, 3-Chloro-2,6-dimethyl-5-{4-[1-({4-[(trifluoromethyl)oxy]phenyl}methyl)-1,2,3,6-tetrahydro-4-pyridinyl]phenyl}-4(1H)-pyridinone hydrochloride], for which the half-inhibitory concentration (IC50) is < 0.125 µg/mL. On to `Cc1[nH]c(C)c(-c2ccc(-c3ccc(CN4CCC(c5ccc(OC(F)(F)F)cc5)CC4)cc3)cc2)c(=O)c1Cl.Cl` [Example 33, 3-Chloro-2,6-dimethyl-5-{4'-[(4-{4-[(trifluoromethyl)oxy]phenyl}-1-piperidinyl)methyl]-4-biphenylyl}-4(1H)-pyridinone hydrochloride], for which the half-maximal inhibitory concentration (IC50) was < 0.125 µg/mL. `Cc1[nH]c(C)c(-c2ccc(-c3cccc(CN(C)Cc4ccc(OC(F)(F)F)cc4)c3)cc2)c(=O)c1Cl.Cl` [Example 34, 3-Chloro-2,6-dimethyl-5-(3'-{[methyl({4-[(trifluoromethyl)oxy]phenyl}methyl)amino]methyl}-4-biphenylyl)-4(1H)-pyridinone hydrochloride]: the IC50 was < 0.125 µg/mL. For `Cc1[nH]c(C)c(-c2ccc(-c3ccc(CN(C)Cc4ccc(OC(F)(F)F)cc4)cc3)cc2)c(=O)c1Cl.Cl` [Example 35, 3-Chloro-2,6-dimethyl-5-(4'-{[methyl({4-[(trifluoromethyl)oxy]phenyl}methyl)amino]methyl}-4-biphenylyl)-4(1H)-pyridinone hydrochloride], the IC50 was < 0.125 µg/mL. The same measure, in the same setting: the value for `Cc1[nH]c(C)c(-c2ccc(C#CCN(C)Cc3ccc(F)cc3F)cc2)c(=O)c1Cl.Cl` [Example 40, 3-Chloro-5-(4-{3-[[(2,4-difluorophenyl)methyl](methyl)amino]-1-propyn-1-yl}phenyl)-2,6-dimethyl-4(1H)-pyridinone hydrochloride] was < 0.125 µg/mL; that for `Cc1[nH]c(C)c(-c2ccc(C#CCN(C)Cc3ccco3)cc2)c(=O)c1Cl.Cl` [Example 41, 3-Ch loro-5-(4-{3-[(2-furanylmethyl)(methyl)amino]-1-propyn-1-yl}phenyl)-2,6-dimethyl-4(1H)-pyridinone hydrochloride] was < 0.125 µg/mL; that for `Cc1ccc(CN(C)CC#Cc2ccc(-c3c(C)[nH]c(C)c(Cl)c3=O)cc2)s1.Cl` [Example 42, 3-Chloro-2,6-dimethyl-5-[4-(3-{methyl[(5-methyl-2-thienyl)methyl]amino}-1-propyn-1-yl)phenyl]-4(1H)-pyridinone hydrochloride] was < 0.125 µg/mL. `Cc1[nH]c(C)c(-c2ccc(C#CCN(C)Cc3nccs3)cc2)c(=O)c1Cl.Cl` [Example 43, 3-Chloro-2,6-dimethyl-5-(4-{3-[methyl(1,3-thiazol-2-ylmethyl)amino]-1-propyn-1-yl}phenyl)-4(1H)-pyridinone hydrochloride]: the IC50 was < 0.125 µg/mL. Still for that read-out and setting: the value for `Cc1[nH]c(C)c(-c2ccc(C#CCN(C)Cc3cccn3C)cc2)c(=O)c1Cl.Cl` [Example 44, 3-Chloro-2,6-dimethyl-5-[4-(3-{methyl[(1-methyl-1H-pyrrol-2-yl)methyl]amino}-1-propyn-1-yl)phenyl]-4(1H)-pyridinone hydrochloride] was < 0.125 µg/mL.

Turning to `Cc1[nH]c(C)c(-c2ccc(C#CCN(C)Cc3ccsc3)cc2)c(=O)c1Cl.Cl` [Example 45, 3-Chloro-2,6-dimethyl-5-(4-{3-[methyl(3-thienylmethyl)amino]-1-propyn-1-yl}phenyl)-4(1H)-pyridinone hydrochloride], the IC50 was < 0.125 µg/mL. In the case of `Cc1[nH]c(C)c(-c2ccc(C#CCN(C)Cc3ccc(Cl)cc3Cl)cc2)c(=O)c1Cl.Cl` [Example 46, 3-Chloro-5-(4-{3-[[(2,4-dichlorophenyl)methyl](methyl)amino]-1-propyn-1-yl}phenyl)-2 ,6-dimethyl-4(1H)-pyridinone hydrochloride], the IC50 was < 0.125 µg/mL. Turning to `Cc1[nH]c(C)c(-c2ccc(C#CCN(C)Cc3ccc(S(C)(=O)=O)cc3)cc2)c(=O)c1Cl.Cl` [Example 47, 3-Chloro-2,6-dimethyl-5-{4-[3-(methyl{[4-(methylsulfonyl)phenyl]methyl}amino)-1-propyn-1-yl]phenyl}-4(1H)-pyridinone hydrochloride], the IC50 is < 0.125 µg/mL.

Take `Cc1[nH]c(C)c(-c2ccc(C#CCN(C)CCC(C)(C)C)cc2)c(=O)c1Cl.Cl` [Example 48, 3-Chloro-5-(4-{3-[(3,3-dimethylbutyl)(methyl)amino]-1-propyn-1-yl}phenyl)-2 ,6-dimethyl-4(1H)-pyridinone hydrochloride]: the IC50 was < 0.125 µg/mL. Turning to `Cc1[nH]c(C)c(-c2ccc(C#CCN(C)CCC(F)(F)F)cc2)c(=O)c1Cl.Cl` [Example 49, 3-Chloro-2,6-dimethyl-5-(4-{3-[methyl(3,3,3-trifluoropropyl)amino]-1-propyn-1-yl}phenyl)-4(1H)-pyridinone hydrochloride], the IC50 is < 0.125 µg/mL. As for `Cc1[nH]c(C)c(-c2ccc(C#CCN(C)Cc3ccc(F)cc3)cc2)c(=O)c1Cl` [Example 50, 3-Chloro-5-(4-{3-[[(4-fluorophenyl)methyl](methyl)amino]-1-propyn-1-yl}phenyl)-2,6-dimethyl-4(1H)-pyridinone], the IC50 is < 0.125 µg/mL.

Consider `CC(=O)Oc1c(Cl)c(C)nc(C)c1-c1ccc(-c2ccc(CN3CCC(c4ccc(OC(F)(F)F)cc4)CC3)cc2)cc1.Cl` [Example 56, 3-Chloro-2,6-dimethyl-5-{4'-[(4-{4-[(trifluoromethyl)oxy]phenyl}-1-piperidinyl)methyl]-4-biphenylyl}-4-pyridinyl acetate hydrochloride], for which the IC50 was < 0.125 µg/mL. Still for that read-out and setting: the value for `Cc1[nH]c(C)c(-c2ccc(-c3ccc(CN4CCC(C(F)(F)F)CC4)cc3)cc2)c(=O)c1Cl.Cl` [Example 57, 3-chloro-2,6-dimethyl-5-(4'-{[4-(trifluoromethyl) -1-piperidinyl]methyl}-4-biphenylyl)-4(1H)-pyridinone hydrochloride] was < 0.125 µg/mL; that for `Cc1[nH]c(C)c(-c2ccc(-c3ccc(CN4CCC(F)(F)C4)cc3)cc2)c(=O)c1Cl.Cl` [Example 60, 3-chloro-5-{4'-[(3,3-difluoro-1-pyrrolidinyl)methyl]-4-biphenylyl}-2,6-dimethyl-4(1H)-pyridinone hydrochloride] was < 0.125 µg/mL. On the same count and under the same terms, the result for `Cc1[nH]c(CO)c(-c2ccc(-c3ccc(CN4CCC(c5ccc(OC(F)(F)F)cc5)CC4)cc3)cc2)c(=O)c1Cl` [Example 61, 3-chloro-6-(hydroxymethyl)-2-methyl-5-{4'-[(4-{4-[(trifluoromethyl)oxy]phenyl}-1-piperidinyl)methyl]-4-biphenylyl}-4(1H)-pyridinone] reads < 0.125 µg/mL.

The assay is the same for the next values; noted with them: Plasmodium falciparum, Erythrocyte.
With `Cc1[nH]c(C)c(-c2ccc(C#CCN(Cc3ccc(OC(F)(F)F)cc3)CC3CCCC3)cc2)c(=O)c1Cl` [Example 38, 3-Chloro-5-(4-{3-[(cyclopentylmethyl)({4-[(trifluoromethyl)oxy]phenyl}methyl)aminol-1-propyn-1-yl}phenyl)-2,6-dimethy)-4(1H)-pyridinone hydrochloride], the IC50 is < 0.125 µg/mL. On to `Cc1[nH]c(C)c(-c2ccc(CCCN3CCC(c4ccc(OC(F)(F)F)cc4)CC3)cc2)c(=O)c1Cl` [Example 52, 3-Chloro-2,6-dimethyl-5-{4-[3-(4-{4-[(trifluoromethyl)oxy]phenyl}-1-piperidinyl)propyl]phenyl}-4(1H)-pvridinone hydrochloride], for which the IC50 was < 0.125 µg/mL.

As a reminder, the IC50 is the concentration at which inhibition is half-maximal. Low values mean greater potency, high ones weaker potency.
